Data reported in patent US7232812B2, “Substituted azetidine compounds, their preparation and use as medicaments” (Laboratorios de Dr. Esteve S.A., priority 2004, dated 2007).

Tests used:
Assay type in all cases: in vivo
rats [1] = assay: Test for activity against edema in rats (carrageenin paw); conditions: Rattus norvegicus, oral route
Experimental: IV. Test for Activity Against Edema in Rats
The test for activity against edema is carried out as described in the publication of Winter et al., Proc. Soc. Exp. Biol. Med. 111, 544–547, (1962). The respective part of the description is hereby incorporated by reference and forms part of the present disclosure.
At the beginning of each experimental session the rats are deprived of food, and kept in cages within groups of 5 animals, the cages being fitted with a grating on the floor to prevent coprophagy. After a period of 24 hours without food, the animals are marked in a suitable way, weighed and hydrated via oral administration of 30 ml/kg body weight of tap water. Half an hour after the hydratisation, the compounds to be tested are administered via oral route, in an amount of 10 ml/kg body weight as a suspension in gum arabic at 5% (weigh/volume). One hour after administration of the compounds the animals receive 0.1 ml of the inflammation causing agent (carrageenin 1% weight/volume, in sterile solution), injected via subplantar route into the right hind paw of the rats. Immediately after the carrageenin injection the volume of the injected paw is determined using a plethysmometer. The readings are expressed in ml. Readings of the volume of the paw are taken every hour after administration of the carrageenin for 7 hours.

PGE2 production [2] = assay: PGE2 production in rat gastric mucosa; conditions: rats, oral route, read-out: PGE2 gastric mucose ED50
Experimental: (§1) VI: PGE2 Production in Rat Inflammatory Exudate and Gastric Mucosa
(§2) The PGE2 production in rat inflammatory exudate and gastric mucosa is carried out as described in the publication of O Tofanetti et al., “Effect of nimesulide on cyclo-oxygenase activity in rat gastric mucosa and inflammatory exudate”, Med Sci Res 17, 745–746 (1989). The respective part of the description is hereby incorporated by reference and forms part of the present disclosure.
(§3) For this text 6 male wistar rats (Interfauna-St Feliú de Codines, Barcelona) of approximately 200 g (each approximately 6 weeks of age) are used. The compounds to be tested are administered via oral route in gum Arabic at 5% (weight/volume) at a rate of 10 ml/kg.
(§4) One hour after administration of the compounds and under halothane anaesthesia, each rat is implanted subcutaneously in the interescapular area a 40×15×5 mm polyester sponge, soaked in a 0.5% suspension of carrageenan. […]
(§5) The rats's stomachs are removed and the gastric mucosa is detached from the underlying layers and by means of a 10 mm diameter die, mucosa samples from an area between the gastric corpus and pyloric antrum are taken. […] PGE2 concentrations from the inflammatory exudates and the gastric mucosa are determined by means of immunoassay reagents of Cayman Chemical kit, Ann Arbor, Mich., U.S.A. (Catalogue number: 514010) according to the manufacturer's instructions.

rats [3] = assay: Analgesia test in rats (carrageenan, thermal stimulus); conditions: Rattus norvegicus, oral route, 2 hours after administration, read-out: ED50 analgesic activity
Experimental: III: Analgesia Test in Rats
The inventive compounds are tested for analgesic activity as described above is carried out as described in the publication of K. Hargreaves et al., Pain, 32, 77–88, (1988). The respective part of the description is hereby incorporated by reference and forms part of the disclosure.
The rats are transferred to the experimentation laboratory, where they remain in groups of 5, in makrolon cages with a barred floor to avoid coprophagy. At the beginning of the experiment, water and food were removed, and animals were adequately weighed and marked.
Each rat receives via subplantar injection 0.1 ml of sterile saline solution into the left hind paw, followed by 0.1 ml of a 2% (weight/volume) carrageenan suspension in sterile saline solution into the right hind paw.
Two hours after the subplantar injections of carrageenan and vehicle, each rat receives by oral route the compounds to be tested, suspended in 5% (weight/volume) gum arabic, administered at 10 ml per kg of body weight.
Two hours after the administration of the compounds to be tested, the values for analgesic activity are determined. To this purpose, the rats are transferred to the methacrylate chambers of an analgesimeter provided with a glass floor. […]

PGE2 production [4] = assay: PGE2 production in rat inflammatory exudate; conditions: rats, oral route, carrageenan sponge exudate, read-out: PGE2 Inflam. exudade ED50
Experimental: as §1, §2, §3, §4, §5

SMILES: CC(C)(C)c1cc(C(=O)N2CC(O)C2)cc(C(C)(C)C)c1O [Example 1, (3,5-di-tert-butyl-4-hydroxy-phenyl)-(3-hydroxy-azetidin-1-yl)-methanone]
- ED50 (rats [1]): 3 mg/kg
- ED50 (PGE2 production [2]): 0.16 mg/kg
- ED50 (rats [3]): 0.4 mg/kg
- ED50 (PGE2 production [4]): 0.28 mg/kg

SMILES: CC1(O)CN(C(=O)c2cc(C(C)(C)C)c(O)c(C(C)(C)C)c2)C1 [Example 3, (3,5-di-tert-butyl-4-hydroxy-phenyl)-(3-hydroxy-3-methyl-azetidin-1-yl)-methanone]
- ED50 (rats [1]): 58 mg/kg
- ED50 (PGE2 production [2]): 7.3 mg/kg
- ED50 (rats [3]): 0.14 mg/kg
- ED50 (PGE2 production [4]): 0.5 mg/kg

SMILES: CC(C)(C)c1cc(CN2CC(O)C2)cc(C(C)(C)C)c1O [Example 17, 1-(3,5-di-tert-butyl-4-hydroxy-benzyl)-azetidin-3-ol]
- ED50 (rats [1]): 62 mg/kg
